{
  "source": "patent US6589989B1",
  "about": "“Treatment of cell-mediated immune diseases” (Basilea Pharmaceutica AG, priority 1997, dated 2003)",
  "key": {"[1]": {"test_system": "malignant skin diseases and solid tumors of other organs", "assay": "High oral daily doses of 9-cis retinoic acid in malignant skin diseases and solid tumors", "assay_type": "in vivo", "settings": "high oral daily doses of up to 300 mg"}, "[2]": {"test_system": "non-malignant skin-disorders, such as acne, psoriasis, lamellar ichthyosis, Darier's disease and lichen planus", "settings": "low daily doses of 20 to 60 mg"}, "[3]": {"settings": "higher doses; Kurie et al. 1996, Miller et al. 1996; cited from earlier work"}, "[4]": {"test_system": "T-helper cell type 1 mediated immune diseases", "assay": "Low oral daily doses of 9-cis retinoic acid in T-helper cell type 1 mediated immune diseases"}, "chronic hand eczema": {"test_system": "chronic hand eczema", "assay": "Once daily oral 9-cis retinoic acid in patients with chronic hand eczema refractory to conventional treatment", "description": "Fifteen patients, eight men and seven women, with chronic hand eczema, refractory to conventional treatment, were treated with 9-cis retinoic acid. Their mean age was 52.3 years, range 21-83. Before the start of 9-cis retinoic acid therapy, their eczema had already lasted for 3 months to 8 years, with a mean of 29 months. […] Therapy consisted in a once daily oral dose of 40 mg 9-cis retinoic acid, given in the form of two soft gelatin capsules containing 20 mg of 9-cis retinoic acid each, with breakfast. 8 patients received in the first week only 20 mg. Mean duration of treatment was 2 months, range 1-3 months. The following lesions and symptoms were recorded on a 0-4 scale (0=none, 1=mild, 2=moderate and 4=severe) and used for evaluating the therapeutic effect: Erythema, papules and vesicles, desquamation, hyperkeratosis, rhagades and pruritus/pain. Side effects, particularly those belonging to the hypervitaminosis A syndrome, were recorded: Headache, dry lips, other mucocutaneous manifestations, muscoskeletal symptoms and laboratory abnormalities."}, "[5]": {"settings": "0-4 scale, individual patient, after 40 mg oral daily for 1-3 months"}, "[6]": {"settings": "0-4 scale, individual patient, before 40 mg oral daily"}, "[7]": {"settings": "for all 15 patients, 40 mg daily oral"}, "[8]": {"settings": "for the 14 responding patients, 40 mg daily oral"}, "[9]": {"settings": "for the 14 responding patients, 40 mg daily oral, listed as 9-cis retinoic acid"}, "[10]": {"settings": "individual patient, 40 mg oral daily for 1-3 months"}},
  "note": "Values joined by “and” are separate entries in the source; they are usually repeats but may differ in a detail not shown here. Equal values may be shown once.",
  "data": [
    {"smiles": "CC1=C(/C=C/C(C)=C\\C=C\\C(C)=C\\C(=O)O)C(C)(C)CCC1", "note": "[9-cis RA, 9-cis retinoic acid]", "values": [
      {"measurement": "Objective tumor regressions", "setting": "[1]", "value": "did not lead to major objective tumor regressions"},
      {"measurement": "Side effects", "setting": "[1]", "value": "marked to severe side effects"},
      {"measurement": "Therapeutic effect on non-malignant skin-disorders", "setting": "[2]", "value": "no therapeutic effect"},
      {"measurement": "Other mucocutaneous manifestations, musculoskeletal or other symptoms", "setting": "[3]", "value": "seen with higher doses"},
      {"measurement": "Other toxic signs and symptoms of the hypervitaminosis A syndrome, including the laboratory abnormalities", "setting": "[4]; daily doses typically 20 to 60 mg, oral", "value": "not induced"},
      {"measurement": "Efficacy in treatment of T-helper cell type 1 mediated immune diseases", "setting": "[4]; low daily doses of 20 to 60 mg", "value": "efficacious"},
      {"measurement": "Desquamation, after treatment", "setting": "chronic hand eczema; [5]", "value": "1 (5×) and 0 (6×) and 3/3 and 0/0 (2×) and 0.5"},
      {"measurement": "Erythema, after treatment", "setting": "chronic hand eczema; [5]", "value": "0 (9×) and 0.5 (2×) and 2 and 0/0 and 2/2 and 1"},
      {"measurement": "Hyperkeratosis, after treatment", "setting": "chronic hand eczema; [5]", "value": "0 (8×) and 1/1 (2×) and 1 (2×) and 3/3 and 0.5 (2×)"},
      {"measurement": "Papules, vesicles, after treatment", "setting": "chronic hand eczema; [5]", "value": "0 (4×) and 1 (4×) and 0/0 (6×) and 0.5"},
      {"measurement": "Pruritus (+ pain), after treatment", "setting": "chronic hand eczema; [5]", "value": "0 (6×) and 1 (4×) and 2 (2×) and 7/7 and 0.5 (2×)"},
      {"measurement": "Rhagades, after treatment", "setting": "chronic hand eczema; [5]", "value": "0 (12×) and 2 and 2/2 and 1"},
      {"measurement": "Desquamation, before treatment", "setting": "chronic hand eczema; [6]", "value": "2 (4×) and 3 (4×) and 1 (4×) and 3/3 and 0/0 (2×)"},
      {"measurement": "Erythema, before treatment", "setting": "chronic hand eczema; [6]", "value": "1 (8×) and 2 (4×) and 4 and 0/0 and 2/2"},
      {"measurement": "Hyperkeratosis, before treatment", "setting": "chronic hand eczema; [6]", "value": "4 and 3 and 1/1 (2×) and 2 (8×) and 1 (2×) and 3/3"},
      {"measurement": "Papules, vesicles, before treatment", "setting": "chronic hand eczema; [6]", "value": "3 (3×) and 2 (3×) and 1 (3×) and 0/0 (6×)"},
      {"measurement": "Pruritus (+ pain), before treatment", "setting": "chronic hand eczema; [6]", "value": "2 (3×) and 3 (4×) and 4 (3×) and 5 (4×) and 7/7"},
      {"measurement": "Rhagades, before treatment", "setting": "chronic hand eczema; [6]", "value": "3 (3×) and 2 (5×) and 1 (5×) and 0.5 and 2/2"},
      {"measurement": "Regression of the various lesions and symptoms (erythema, papules and vesicles etc.)", "setting": "chronic hand eczema; 40 mg daily oral", "value": "62-100%"},
      {"measurement": "Musculoskeletal or other symptoms", "setting": "chronic hand eczema; 40 mg daily, 15 patients", "value": "no musculoskeletal or other symptoms were observed"},
      {"measurement": "Overall response of the patients", "setting": "chronic hand eczema; all fifteen patients, 40 mg daily", "value": "responded markedly"},
      {"measurement": "Reduction of Lesion/symptom score, in %, mean", "setting": "chronic hand eczema; [7]", "value": 76.3, "unit": "%"},
      {"measurement": "Reduction of Lesion/symptom score, in %, range", "setting": "chronic hand eczema; [7]", "value": "0-100%"},
      {"measurement": "Reduction of Lesion/symptom score, in %, mean", "setting": "chronic hand eczema; [8]", "value": "mean 81.8%"},
      {"measurement": "Reduction of Lesion/symptom score, in %, range", "setting": "chronic hand eczema; [8]", "value": "for the 14 responding patients 53-100, %"},
      {"measurement": "Reduction of Lesion/symptom score, in %, mean", "setting": "chronic hand eczema; [9]", "value": 81.3, "unit": "%"},
      {"measurement": "Reduction of Lesion/symptom score, in %, range", "setting": "chronic hand eczema; [9]", "value": "53-100%"},
      {"measurement": "Response assessed by doctor", "setting": "chronic hand eczema; [10]", "value": "very good (6×) and good (7×) and no and moderate"},
      {"measurement": "Response assessed by patient", "setting": "chronic hand eczema; [10]", "value": "very good (10×) and good (3×) and moderate and no"},
      {"measurement": "Patients with response good, assessment by doctor, number", "setting": "chronic hand eczema; of 15 patients", "value": 7},
      {"measurement": "Patients with response good, assessment by doctor, percent", "setting": "chronic hand eczema; of 15 patients", "value": "(47%)"},
      {"measurement": "Patients with response good, assessment by patient, number", "setting": "chronic hand eczema; of 15 patients", "value": 3},
      {"measurement": "Patients with response good, assessment by patient, percent", "setting": "chronic hand eczema; of 15 patients", "value": "(20%)"},
      {"measurement": "Patients with response moderate, assessment by doctor, number", "setting": "chronic hand eczema; of 15 patients", "value": 1},
      {"measurement": "Patients with response moderate, assessment by doctor, percent", "setting": "chronic hand eczema; of 15 patients", "value": "(6.5%)"},
      {"measurement": "Patients with response moderate, assessment by patient, number", "setting": "chronic hand eczema; of 15 patients", "value": 1},
      {"measurement": "Patients with response moderate, assessment by patient, percent", "setting": "chronic hand eczema; of 15 patients", "value": "(6.5%)"},
      {"measurement": "Patients with response no, assessment by doctor, number", "setting": "chronic hand eczema; of 15 patients", "value": 1},
      {"measurement": "Patients with response no, assessment by doctor, percent", "setting": "chronic hand eczema; of 15 patients", "value": "(6.5%)"},
      {"measurement": "Patients with response no, assessment by patient, number", "setting": "chronic hand eczema; of 15 patients", "value": 1},
      {"measurement": "Patients with response no, assessment by patient, percent", "setting": "chronic hand eczema; of 15 patients", "value": "(6.5%)"},
      {"measurement": "Patients with response slight, assessment by doctor, number", "setting": "chronic hand eczema; of 15 patients", "value": 0},
      {"measurement": "Patients with response slight, assessment by doctor, percent", "setting": "chronic hand eczema; of 15 patients", "value": "(0%)"},
      {"measurement": "Patients with response slight, assessment by patient, number", "setting": "chronic hand eczema; of 15 patients", "value": 0},
      {"measurement": "Patients with response slight, assessment by patient, percent", "setting": "chronic hand eczema; of 15 patients", "value": "(0%)"},
      {"measurement": "Patients with response very good, assessment by doctor, number", "setting": "chronic hand eczema; of 15 patients", "value": 6},
      {"measurement": "Patients with response very good, assessment by doctor, percent", "setting": "chronic hand eczema; of 15 patients", "value": "(40%)"},
      {"measurement": "Patients with response very good, assessment by patient, number", "setting": "chronic hand eczema; of 15 patients", "value": 10},
      {"measurement": "Patients with response very good, assessment by patient, percent", "setting": "chronic hand eczema; of 15 patients", "value": "(67%)"},
      {"measurement": "Response considered very good or good (doctor and patient), number of patients", "setting": "chronic hand eczema; of 15 patients", "value": 13},
      {"measurement": "Response considered very good or good (doctor and patient), percent of patients", "setting": "chronic hand eczema; of 15 patients", "value": 87, "unit": "%"},
      {"measurement": "Total Score (0-4 scale), after treatment", "setting": "chronic hand eczema; sum of lesion/symptom scores, individual patient, after 40 mg oral daily for 1-3 months", "value": "1 (3×) and 2 (4×) and 4.5 (2×) and 3 and 0 (3×) and 8 and 17/17"},
      {"measurement": "Total Score (0-4 scale), before treatment", "setting": "chronic hand eczema; sum of lesion/symptom scores, individual patient, before 40 mg oral daily", "value": "15 and 14 (2×) and 11 (4×) and 10 (2×) and 17 and 9 (2×) and 17/17 and 13 and 8"},
      {"measurement": "Reduction of score in %", "setting": "chronic hand eczema; total score, individual patient, 40 mg oral daily for 1-3 months", "value": "93% and 86% and 59% and 61% and 74% and 100% (3×) and 53% and 89% (2×) and 0% and 85% and 82% and 75%"}
    ]}
  ]
}
